Assay results reported in PubChem BioAssay (NCI).
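Exposure lasted 48 hours, with cells grown in 96-well plates and compounds tested at five concentrations. TGI is the concentration that stops growth completely.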

Key:
Experiment in all cases: NCI tumour cell line growth inhibition, 48 h
EKVX NSCLC = test system: EKVX NSCLC
SK-MEL-28 melanoma = test system: SK-MEL-28 melanoma
K-562 leukemia = test system: K-562 leukemia
MDA-MB-435 = test system: MDA-MB-435
786-0 renal = test system: 786-0 renal
A549 NSCLC = test system: A549 NSCLC
CAKI-1 renal = test system: CAKI-1 renal
NCI-H226 lung = test system: NCI-H226 lung
ACHN renal = test system: ACHN renal
MDA-N = test system: MDA-N
HOP-92 NSCLC = test system: HOP-92 NSCLC

## Cc1csc(-c2cn(C)c3c2C(=O)C(N)=CC3=O)n1
EKVX NSCLC
  TGI: > 100 µM
SK-MEL-28 melanoma
  TGI: > 100 µM
K-562 leukemia
  TGI: > 100 µM
MDA-MB-435
  TGI: 15.3 µM
786-0 renal
  TGI: > 100 µM
A549 NSCLC
  TGI: 8.76 µM
CAKI-1 renal
  TGI: > 64.4 µM
NCI-H226 lung
  TGI: > 80.1 µM
ACHN renal
  TGI: > 52.1 µM
MDA-N
  TGI: 45.2 µM
HOP-92 NSCLC
  TGI: > 100 µM

## CN(C)Cc1cc(C(=O)/C=C/c2ccc(O)cc2)cc(CN(C)C)c1O
EKVX NSCLC
  TGI: > 100 µM
SK-MEL-28 melanoma
  TGI: > 100 µM
K-562 leukemia
  TGI: > 100 µM
MDA-MB-435
  TGI: > 100 µM
786-0 renal
  TGI: > 100 µM
A549 NSCLC
  TGI: > 100 µM
CAKI-1 renal
  TGI: > 100 µM
NCI-H226 lung
  TGI: > 100 µM
ACHN renal
  TGI: 53.3 µM
MDA-N
  TGI: > 100 µM
HOP-92 NSCLC
  TGI: > 100 µM

## COc1ccc(CC(O)CN2CCOCC2)cc1 (centres undefined)
EKVX NSCLC
  TGI: > 100 µM
SK-MEL-28 melanoma
  TGI: > 100 µM
K-562 leukemia
  TGI: > 100 µM
MDA-MB-435
  TGI: > 100 µM
786-0 renal
  TGI: > 100 µM
A549 NSCLC
  TGI: > 100 µM
CAKI-1 renal
  TGI: > 100 µM
NCI-H226 lung
  TGI: > 100 µM
ACHN renal
  TGI: > 100 µM
MDA-N
  TGI: > 100 µM
HOP-92 NSCLC
  TGI: > 100 µM

## Cc1ccccc1C(O)(c1nccn1C)c1nccn1C
EKVX NSCLC
  TGI: > 100 µM
SK-MEL-28 melanoma
  TGI: > 100 µM
K-562 leukemia
  TGI: > 100 µM
MDA-MB-435
  TGI: > 100 µM
786-0 renal
  TGI: > 100 µM
A549 NSCLC
  TGI: > 100 µM
CAKI-1 renal
  TGI: > 100 µM
NCI-H226 lung
  TGI: > 100 µM
ACHN renal
  TGI: > 100 µM
MDA-N
  TGI: > 100 µM
HOP-92 NSCLC
  TGI: > 100 µM

## C1=CC2=CC=CC3c4nc5ccc6ccccc6c5nc4C(=C1)C23 (centres undefined)
EKVX NSCLC
  TGI: > 100 µM
SK-MEL-28 melanoma
  TGI: > 100 µM
K-562 leukemia
  TGI: > 100 µM
MDA-MB-435
  TGI: > 100 µM
786-0 renal
  TGI: > 100 µM
A549 NSCLC
  TGI: > 100 µM
CAKI-1 renal
  TGI: > 100 µM
NCI-H226 lung
  TGI: > 100 µM
ACHN renal
  TGI: > 100 µM
MDA-N
  TGI: > 100 µM
HOP-92 NSCLC
  TGI: > 100 µM

## C=CCOC(=O)CC[N+]1=CCC(c2ccccc2)(c2ccccc2)O1
EKVX NSCLC
  TGI: > 100 µM
SK-MEL-28 melanoma
  TGI: > 100 µM
K-562 leukemia
  TGI: > 100 µM
MDA-MB-435
  TGI: > 100 µM
786-0 renal
  TGI: > 100 µM
A549 NSCLC
  TGI: > 100 µM
CAKI-1 renal
  TGI: > 100 µM
NCI-H226 lung
  TGI: > 100 µM
ACHN renal
  TGI: > 100 µM
MDA-N
  TGI: > 100 µM
HOP-92 NSCLC
  TGI: > 100 µM

## CCCCC1c2c([nH]c3ccccc23)C2C(=O)N(c3ccc(OC)cc3)C(=O)C2C1CCC (centres undefined)
EKVX NSCLC
  TGI: > 10 µM
SK-MEL-28 melanoma
  TGI: > 10 µM
K-562 leukemia
  TGI: 7.43 µM
MDA-MB-435
  TGI: 4.29 µM
786-0 renal
  TGI: > 10 µM
A549 NSCLC
  TGI: > 10 µM
CAKI-1 renal
  TGI: 6.25 µM
NCI-H226 lung
  TGI: > 10 µM
ACHN renal
  TGI: > 10 µM
MDA-N
  TGI: 7.45 µM
HOP-92 NSCLC
  TGI: 7.86 µM

## COc1ccc(C2(CC(C)O)SCCCS2)cc1 (centres undefined)
EKVX NSCLC
  TGI: > 100 µM
SK-MEL-28 melanoma
  TGI: > 100 µM
K-562 leukemia
  TGI: > 100 µM
MDA-MB-435
  TGI: > 100 µM
786-0 renal
  TGI: > 100 µM
A549 NSCLC
  TGI: > 100 µM
CAKI-1 renal
  TGI: > 100 µM
NCI-H226 lung
  TGI: > 100 µM
ACHN renal
  TGI: > 100 µM
MDA-N
  TGI: > 100 µM
HOP-92 NSCLC
  TGI: > 100 µM

## C/C=C/C=C/c1nc(C#N)c(N)o1
EKVX NSCLC
  TGI: > 100 µM
SK-MEL-28 melanoma
  TGI: > 100 µM
K-562 leukemia
  TGI: > 100 µM
MDA-MB-435
  TGI: > 100 µM
786-0 renal
  TGI: > 100 µM
A549 NSCLC
  TGI: > 100 µM
CAKI-1 renal
  TGI: > 100 µM
NCI-H226 lung
  TGI: > 100 µM
ACHN renal
  TGI: > 100 µM
MDA-N
  TGI: > 100 µM
HOP-92 NSCLC
  TGI: > 100 µM
